The values that follow come from paper PMC2576352, “The V1-V3 region of a brain-derived HIV-1 envelope glycoprotein determines macrophage tropism, low CD4 dependence, increased fusogenicity and altered sensitivity to entry inhibitors” (Retrovirology, 2008).

The test system of assay [1] is pseudotypes containing wild-type, chimeric and mutant Env. Kind of assay: Inhibition of pseudotype infection by entry/fusion inhibitors, Env panel. The format is cell-based, HIV-1. As to the method: (§1) To produce Env-pseudotyped, luciferase-reporter viruses, 293T cells were co-transfected using calcium phosphate precipitation (ProFection Mammalian Transfection System, Promega, Madison, WI) with each Env expression vector and with the Env-deficient, pNL4-3-luc^+env^- provirus, developed by N. Landau by introducing a frameshift mutation in the env gene of pNL4-3-luc^+ [87]. Culture supernatants containing the pseudotyped particles were collected 48–72 hours after transfection, clarified by centrifugation, aliquoted and stored at -80°C until use. Pseudotype particles lacking envelope glycoproteins, which are generated by co-transfecting the luciferase HIV-1 pro-viral backbone with an empty expression vector, are used as negative control for all pseudotype infections. Pseudotype stocks were quantitated using a p24^gag antigen capture ELISA (SAIC-National Cancer Institute) and normalized amounts of stocks were used to infect target cells for 5–6 hours at 37°C. At 2–3 days post-infection, the cells were washed with PBS and lysed, and the amount of entry mediated by each Env was measured by detecting luciferase activity (Luciferase Assay System, Promega) in a microplate luminometer (GloMax, Promega), following manufacturer's instructions. Results are obtained as relative light units (RLU) per second. […]
Inhibition curves obtained by plotting the relative infection (expressed as a percent of untreated) versus the concentration of the inhibitor were analyzed by non-linear regression with a sigmoidal dose-response model (variable slopes) using GraphPad Prism software, version 4.02 (GraphPad Software, San Diego, CA); this analysis uses a four parameter logistic equation, Y = Bottom + (Top-Bottom)/( 1+10^((log10IC50−X)⋅Slope) ) where Y is the response, Bottom is 0 and Top is 100, X is the logarithm of the concentration, and Slope is the slope of the curve. […] Fusogenicity data were analyzed by non-linear regression with a one-phase exponential model (using GraphPad Prism) that uses the equation Y=Ymax(1-e^(-kX)), where Ymax is the maximum response and k is the observed rate. […]

Assay [2] has as its system Sv1v3 chimeric Env pseudotype. In words: Inhibition of pseudotype infection by entry/fusion inhibitors, Sv1v3 Env. The following applies: HOS-CD4-CCR5 cells, inhibitor + virus 5–6 h at 37°C, luciferase at 2–3 days, non-linear regression, 95% confidence limits in parentheses. The format is cell-based, HIV-1. As to the method: as §1
The test system of the next assay is macrophage-tropic Env. As to conditions: Peters et al.; cited from earlier work. The source says: Therefore, low CD4 dependence seems to correlate not only with fusogenicity and with the sensitivity to fusion and other entry inhibitors, but also with the macrophage tropism of Env. This is in agreement with recent work by Thomas et al. reporting that Env conferring macrophage tropism display low CD4 dependence and higher efficiency of fusion.

Assay [3] concerns Spl(T283N) mutant Env pseudotype. Kind of assay: Inhibition of pseudotype infection by entry/fusion inhibitors, Spl(T283N) Env. The format is cell-based, HIV-1. The following applies: HOS-CD4-CCR5 cells, inhibitor + virus 5–6 h at 37°C, luciferase at 2–3 days, non-linear regression, 95% confidence limits in parentheses. On the procedure:
as §1

Assay [4] has as its system Sv1v2 chimeric Env pseudotype. In words: Inhibition of pseudotype infection by entry/fusion inhibitors, Sv1v2 Env. The format is cell-based, HIV-1. The following applies: HOS-CD4-CCR5 cells, inhibitor + virus 5–6 h at 37°C, luciferase at 2–3 days, non-linear regression, 95% confidence limits in parentheses. On the procedure:
as §1

Assay [5] relates to SB chimeric Env (spleen gp120-brain gp41) pseudotype. The class given is cell-based, HIV-1. As to conditions: HOS-CD4-CCR5 cells, inhibitor + virus 5–6 h at 37°C, luciferase at 2–3 days, non-linear regression, 95% confidence limits in parentheses. On the procedure:
(§2) To produce Env-pseudotyped, luciferase-reporter viruses, 293T cells were co-transfected using calcium phosphate precipitation (ProFection Mammalian Transfection System, Promega, Madison, WI) with each Env expression vector and with the Env-deficient, pNL4-3-luc^+env^- provirus, developed by N. Landau by introducing a frameshift mutation in the env gene of pNL4-3-luc^+ [87]. Culture supernatants containing the pseudotyped particles were collected 48–72 hours after transfection, clarified by centrifugation, aliquoted and stored at -80°C until use. Pseudotype particles lacking envelope glycoproteins, which are generated by co-transfecting the luciferase HIV-1 pro-viral backbone with an empty expression vector, are used as negative control for all pseudotype infections. Pseudotype stocks were quantitated using a p24^gag antigen capture ELISA (SAIC-National Cancer Institute) and normalized amounts of stocks were used to infect target cells for 5–6 hours at 37°C. At 2–3 days post-infection, the cells were washed with PBS and lysed, and the amount of entry mediated by each Env was measured by detecting luciferase activity (Luciferase Assay System, Promega) in a microplate luminometer (GloMax, Promega), following manufacturer's instructions. Results are obtained as relative light units (RLU) per second. At least three independent experiments were performed for each analysis described below, with 2–8 replicates within each experiment.
(§3) To test for sensitivity to fusion inhibitors, BMS-378806 and HNG-105, the medium from HOS-CD4-CCR5 cells plated in 96-well plates 24 hours before infection, was removed and replaced by fresh medium containing 2× the final concentration of the corresponding inhibitor, and immediately the same volume of viral stocks was added. After 5–6 hours at 37°C, inocula and inhibitors were removed and the cells were incubated for 2–3 days before evaluating the amount of infection.
(§4) Inhibition curves obtained by plotting the relative infection (expressed as a percent of untreated) versus the concentration of the inhibitor were analyzed by non-linear regression with a sigmoidal dose-response model (variable slopes) using GraphPad Prism software, version 4.02 (GraphPad Software, San Diego, CA); this analysis uses a four parameter logistic equation, Y = Bottom + (Top-Bottom)/( 1+10^((log10IC50−X)⋅Slope) ) where Y is the response, Bottom is 0 and Top is 100, X is the logarithm of the concentration, and Slope is the slope of the curve. 50% inhibitory concentrations (IC50) and 95% confidence intervals were estimated from the non-linear regression analysis. Fusogenicity data were analyzed by non-linear regression with a one-phase exponential model (using GraphPad Prism) that uses the equation Y=Ymax(1-e^(-kX)), where Ymax is the maximum response and k is the observed rate. CD4 dependence data were analyzed with SPSS, version 16, using the non-parametric Mann-Whitney test.

Assay [6] concerns Bv1v3 chimeric Env pseudotype. The class given is cell-based, HIV-1. The following applies: HOS-CD4-CCR5 cells, inhibitor + virus 5–6 h at 37°C, luciferase at 2–3 days, non-linear regression, 95% confidence limits in parentheses. As to the method: as §2, §3, §4
The subject of assay [7] is Spl (spleen-derived) Env pseudotype. The format is cell-based, HIV-1. As to conditions: HOS-CD4-CCR5 cells, inhibitor + virus 5–6 h at 37°C, luciferase at 2–3 days, non-linear regression, 95% confidence limits in parentheses. As to the method:
as §2, §3, §4

For assay [8], the system named is Br(N283T) mutant Env pseudotype. The format is cell-based, HIV-1. As to conditions: HOS-CD4-CCR5 cells, inhibitor + virus 5–6 h at 37°C, luciferase at 2–3 days, non-linear regression, 95% confidence limits in parentheses. As to the method: as §2, §3, §4
Assay [9] deals with Bv1v2 chimeric Env pseudotype. The format is cell-based, HIV-1. The following applies: HOS-CD4-CCR5 cells, inhibitor + virus 5–6 h at 37°C, luciferase at 2–3 days, non-linear regression, 95% confidence limits in parentheses. On the procedure: as §2, §3, §4
Another assay deals with BaL Env pseudotype. The class given is cell-based, HIV-1. The following applies: HOS-CD4-CCR5 cells, inhibitor + virus 5–6 h at 37°C, luciferase at 2–3 days, non-linear regression, 95% confidence limits in parentheses. On the procedure: as §2, §3, §4
In assay [10] the test system is DS17(N283T) mutant Env pseudotype. The format is cell-based, HIV-1. The following applies: HOS-CD4-CCR5 cells, inhibitor + virus 5–6 h at 37°C, luciferase at 2–3 days, non-linear regression, 95% confidence limits in parentheses. On the procedure:
as §2, §3, §4

In the next assay the test system is DS17 Env pseudotype. The format is cell-based, HIV-1. As to conditions: HOS-CD4-CCR5 cells, inhibitor + virus 5–6 h at 37°C, luciferase at 2–3 days, non-linear regression, 95% confidence limits in parentheses. On the procedure:
as §2, §3, §4

Assay [11] deals with Br (brain-derived) Env pseudotype. The class given is cell-based, HIV-1. As to conditions: HOS-CD4-CCR5 cells, inhibitor + virus 5–6 h at 37°C, luciferase at 2–3 days, non-linear regression, 95% confidence limits in parentheses. On the procedure:
as §2, §3, §4

Assay [12] concerns BS chimeric Env (brain gp120-spleen gp41) pseudotype. The format is cell-based, HIV-1. As to conditions: HOS-CD4-CCR5 cells, inhibitor + virus 5–6 h at 37°C, luciferase at 2–3 days, non-linear regression, 95% confidence limits in parentheses. As to the method:
as §2, §3, §4

In the next assay the test system is HxB Env pseudotype. Kind of assay: Inhibition of pseudotype infection by entry/fusion inhibitors, HxB Env. The format is cell-based, HIV-1. As to conditions: inhibitor + virus 5–6 h at 37°C, luciferase at 2–3 days, non-linear regression, 95% confidence limits in parentheses. On the procedure: as §1
Assay [13] has as its system brain-derived Env versus spleen-derived Env. The following applies: cited from earlier work. The source says: We and others have investigated whether viruses or Env with these particular phenotypes are present among primary isolates in the brain/CNS of HIV-1-infected individuals. In this sense, Peters et al. have reported that the macrophage tropism of brain-derived Env seems to correlate with reduced sensitivity to inhibition by an anti-CD4 mAb but not by CCR5 antagonists or gp41-targeting antibodies or fusion inhibitor peptides. […] We hypothesized that the brain gp120 would contain the determinants for low CD4 dependence and higher avidity for CD4, while gp41 could likely play a role in the increased fusogenicity and reduced sensitivity to fusion inhibitors. In the present study, we have used chimeric and ...

On to “YTNLIYNLIEKSQNQQEMNEQELLKLDTWASLWNWF [T-20-BR, T-20-derived peptide with amino acid changes present in HR2 region of brain-derived env clones]”, for which the “inhibition of pseudotype infection” value in assay [1] (all pseudotypes, data not shown) is given as “very similar inhibition”.

For the molecule `COc1ccnc2[nH]cc(C(=O)C(=O)N3CCN(C(=O)c4ccccc4)C[C@H]3C)c12` [BMS-378806], the IC50 (as a rule, the concentration needed to halve the response being measured) in assay [2] turned out to be 0.9 nM; in assay [3] it was 0.9 nM; in assay [4], 1.2 nM; in assay [5] it was 2 nM; in [6] it was 8.2 nM; in assay [7], 1.8 nM. Further, the 50% inhibitory concentration (IC50) in assay [8] amounted to 13 nM; in assay [9], 4.8 nM; in the assay on BaL Env pseudotype, 29 nM; in [10] it was 32 nM; in the assay on DS17 Env pseudotype it was 41 nM; in [11], 15 nM. For the same molecule, the figures for the IC50 (in assay [12]; in the assay on HxB Env pseudotype) were 20 nM and 3.9 nM, respectively. The “relation of inhibitor sensitivity to macrophage tropism” value in the assay on macrophage-tropic Env is on record as “correlated with increasing macrophage tropism”. Moreover, the “sensitivity of pseudotypes to inhibitor” value in [1] (BR, BR(N283T), BS and Bv1v3 Env vs SPL, SPL(T283N), SB, Sv1v3 or Sv1v2) is on record as “significantly less sensitive to inhibition by BMS-378806”; in [1] (DS17 and DS17(N283T) Env vs BR and Env with related phenotype), “reduced sensitivity to BMS-378806 as compared to the BR”.

`Cc1ccc(-c2ccc3c(c2)C=C(C(=O)Nc2ccc(C[N+](C)(C)C4CCOCC4)cc2)CCC3)cc1.[Cl-]` [TAK-779]: the “sensitivity of brain-derived Env to CCR5 inhibitor” value in [13] was “absence of differences in sensitivity”.
